Source: ChEMBL document CHEMBL6071143, “Discovery of a potent melatonin-based inhibitor of quinone reductase-2 with neuroprotective and neurogenic properties” (Eur J Med Chem, 2024)
Values after ≈ are worked out from the molar mass of the structure shown. Active and inactive are the calls of the source. The calls are words filed in the database; no cut-off is given here.

Assays:
[1] = target: T1, Ribosyldihydronicotinamide dehydrogenase [quinone] (Homo sapiens, UniProt P16083); test: Inhibition of human QR2 expressed in Escherichia coli preincubated with BNAH or NRH followed by menadione addition by FLUOstar plate reader assay
T1 sequence (P16083 whole entry): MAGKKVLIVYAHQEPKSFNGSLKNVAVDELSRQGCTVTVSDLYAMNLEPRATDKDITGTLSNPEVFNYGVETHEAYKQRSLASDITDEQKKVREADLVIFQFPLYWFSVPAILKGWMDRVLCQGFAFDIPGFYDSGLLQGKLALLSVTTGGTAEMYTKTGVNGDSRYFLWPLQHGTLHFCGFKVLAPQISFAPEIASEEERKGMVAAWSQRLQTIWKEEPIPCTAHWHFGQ

[2] = Displacement of 2-[125I]iodomelatonin from human MT1R transfected in CHO cells incubated for 30 mins; assay type: cell-based
[3] = Displacement of 2-[125I]iodomelatonin from human MT2R transfected in CHO cells incubated for 30 mins; assay type: cell-based
[4] = Antioxidant activity assessed as oxygen radical scavenging by measuring trolox equivalents preincubated for 15 mins followed by AAPH addition and measured after 80 mins by fluorescence plate reader assay; assay type: functional; conditions: time 95.0 min
[5] = test system: SH-SY5Y; test: Neuroprotective activity against R/O induced human SH-SY5Y cells oxidative stress model assessed as cell survival at 1 uM preincubated for 24 hrs followed by rotenone oligomycin A addition and measured after 24 hrs by MTT assay; assay type: functional; conditions: read-out: Survival
[6] = test system: SH-SY5Y; test: Cytotoxicity against human SH-SY5Y cells at 1 to 100 uM incubated for 24 hrs by MTT method; assay type: toxicity, cell-based; conditions: dose 1-100 µM
[7] = Aqueous solubility of compound incubated for 24 hrs by UV-spectra analysis; assay type: physicochemical
[8] = test system: CHO; test: Displacement of 2-[125I]iodomelatonin from human MT1R transfected in CHO cells at 10 uM incubated for 30 mins relative to control; assay type: cell-based
[9] = target: T2, Amine oxidase [flavin-containing] A (Homo sapiens, UniProt P21397); test: Inhibition of human MAO-A expressed in baculovirus infected BTI insect cells preincubated for 15 mins followed by p-tyramine addition by amplex red reagent based fluorescence microplate reader assay
T2 sequence (P21397 whole entry): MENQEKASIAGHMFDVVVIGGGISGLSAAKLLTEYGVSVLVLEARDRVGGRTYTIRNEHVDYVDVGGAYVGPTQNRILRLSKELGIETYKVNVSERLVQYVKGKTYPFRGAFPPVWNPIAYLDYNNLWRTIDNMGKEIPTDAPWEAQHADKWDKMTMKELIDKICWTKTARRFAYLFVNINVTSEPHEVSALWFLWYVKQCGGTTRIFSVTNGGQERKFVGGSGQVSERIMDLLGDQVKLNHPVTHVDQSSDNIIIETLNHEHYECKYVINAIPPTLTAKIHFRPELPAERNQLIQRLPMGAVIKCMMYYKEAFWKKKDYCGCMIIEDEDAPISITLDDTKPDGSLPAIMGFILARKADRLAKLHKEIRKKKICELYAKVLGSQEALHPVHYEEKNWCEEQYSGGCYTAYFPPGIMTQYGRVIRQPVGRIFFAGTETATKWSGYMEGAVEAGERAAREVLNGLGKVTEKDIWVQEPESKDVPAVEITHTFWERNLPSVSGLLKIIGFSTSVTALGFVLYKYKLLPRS

[10] = target: T3, Amine oxidase [flavin-containing] B (Homo sapiens, UniProt P27338); test: Inhibition of human MAO-B expressed in baculovirus infected BTI insect cells preincubated for 15 mins followed by p-tyramine addition by amplex red reagent based fluorescence microplate reader assay; assay type: cell-based
T3 sequence (P27338 whole entry): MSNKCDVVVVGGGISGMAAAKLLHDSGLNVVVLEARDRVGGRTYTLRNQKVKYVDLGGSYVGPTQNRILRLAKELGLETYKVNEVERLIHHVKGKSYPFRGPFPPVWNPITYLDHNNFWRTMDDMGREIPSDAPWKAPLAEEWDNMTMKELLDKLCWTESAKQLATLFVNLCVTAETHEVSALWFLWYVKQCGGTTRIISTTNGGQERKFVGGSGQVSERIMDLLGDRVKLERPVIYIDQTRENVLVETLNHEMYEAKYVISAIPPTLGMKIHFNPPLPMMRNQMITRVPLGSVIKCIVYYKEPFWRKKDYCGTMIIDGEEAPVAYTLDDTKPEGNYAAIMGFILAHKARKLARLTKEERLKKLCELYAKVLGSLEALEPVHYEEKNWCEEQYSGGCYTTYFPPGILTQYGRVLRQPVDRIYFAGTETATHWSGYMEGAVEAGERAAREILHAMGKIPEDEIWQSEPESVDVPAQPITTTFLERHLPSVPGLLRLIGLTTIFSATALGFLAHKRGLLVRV

[11] = target: T4, Polyunsaturated fatty acid 5-lipoxygenase (Homo sapiens, UniProt P09917); test: Inhibition of human LOX-5 preincubated for 10 mins followed by AA addition and measured after 20 mins in presence of ATP by fluorescence based assay
T4 sequence (P09917 whole entry): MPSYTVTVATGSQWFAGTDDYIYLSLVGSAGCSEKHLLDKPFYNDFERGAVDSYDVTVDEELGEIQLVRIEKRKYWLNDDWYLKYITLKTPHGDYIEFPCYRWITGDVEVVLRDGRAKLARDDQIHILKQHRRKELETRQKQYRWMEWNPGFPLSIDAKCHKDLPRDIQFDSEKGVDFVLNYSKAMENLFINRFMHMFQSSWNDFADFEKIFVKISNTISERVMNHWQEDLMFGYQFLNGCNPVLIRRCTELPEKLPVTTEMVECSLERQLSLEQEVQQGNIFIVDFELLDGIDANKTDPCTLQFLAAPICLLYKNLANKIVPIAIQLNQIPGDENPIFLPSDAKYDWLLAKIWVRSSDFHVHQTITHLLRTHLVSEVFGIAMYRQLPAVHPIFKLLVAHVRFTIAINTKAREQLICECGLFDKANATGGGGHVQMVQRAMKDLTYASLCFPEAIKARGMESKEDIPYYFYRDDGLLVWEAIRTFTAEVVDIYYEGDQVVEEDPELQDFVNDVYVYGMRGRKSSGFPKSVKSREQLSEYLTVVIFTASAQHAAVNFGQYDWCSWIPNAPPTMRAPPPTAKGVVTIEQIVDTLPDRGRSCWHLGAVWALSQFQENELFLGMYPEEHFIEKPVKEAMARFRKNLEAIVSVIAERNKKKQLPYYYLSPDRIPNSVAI

[12] = test system: SH-SY5Y; test: Neuroprotective activity against R/O induced human SH-SY5Y cells oxidative stress model assessed as increase in cell survival preincubated for 24 hrs followed by rotenone oligomycin A addition and measured after 24 hrs by MTT assay; assay type: functional, cell-based; conditions: dose 0.01-10 µM, time 48.0 hrs
[13] = test system: NSC; test: Neurogenic activity in C57BL/6 mouse primary NSCs assessed as increase in number of TuJ-1 cells at 10 uM incubated for 10 days by DAPI staining based fluorescence confocal microscopy; assay type: functional, cell-based; conditions: time 10.0 day
[14] = test system: NSC; test: Neurogenic activity in C57BL/6 mouse primary NSCs assessed as increase in number of MAP-2 cells at 10 uM incubated for 10 days by DAPI staining based fluorescence confocal microscopy; assay type: functional, cell-based; conditions: time 10.0 day
[15] = Dissociation constant, pKa of compound; assay type: physicochemical
[16] = Octanol-water partition coefficient, logD of the compound at pH 1.2; assay type: physicochemical
[17] = Octanol-water partition coefficient, logD of the compound at pH 7.4; assay type: physicochemical
[18] = Octanol-water partition coefficient, logD of the compound at pH 1; assay type: physicochemical
[19] = Octanol-water partition coefficient, logD of the compound at pH 2; assay type: physicochemical
[20] = Octanol-water partition coefficient, logD of the compound at pH 3; assay type: physicochemical
[21] = Octanol-water partition coefficient, logD of the compound at pH 4; assay type: physicochemical
[22] = Octanol-water partition coefficient, logD of the compound at pH 5; assay type: physicochemical
[23] = Octanol-water partition coefficient, logD of the compound at pH 6; assay type: physicochemical
[24] = Octanol-water partition coefficient, logD of the compound at pH 6.5; assay type: physicochemical
[25] = Octanol-water partition coefficient, logD of the compound at pH 7; assay type: physicochemical
[26] = Octanol-water partition coefficient, logD of the compound at pH 8; assay type: physicochemical
[27] = Octanol-water partition coefficient, logD of the compound at pH 9; assay type: physicochemical
[28] = Octanol-water partition coefficient, logD of the compound at pH 10; assay type: physicochemical
[29] = Octanol-water partition coefficient, logD of the compound at pH 11; assay type: physicochemical
[30] = Octanol-water partition coefficient, logD of the compound at pH 12; assay type: physicochemical

For COc1ccc2c(n1)c(CCNC(=O)c1ccco1)c1n2Cc2cccnc2-1, the IC50 [1] was 5 nM.

With COc1ccc2[nH]cc(CCNC(C)=O)c2c1 [MELATONIN] the Ki [2] was 0.27 nM, the Ki [3] was 0.13 nM and the Activity [4] was 2.3. The viability at 1 µM [5] was 43%, the Activity [6] was “Non-Toxic” and the solubility at 24 h [7] was 6.64 mM (≈ 1540 µg/mL).

COc1ccc2c(c1)CC(c1c[nH]c3ccc(OC)cc13)N2 (stereo unspecified) showed a Ki [2] of roughly 10000 nM, a Ki [3] of 620 nM and an Activity [8] of 58%. It also gave an Activity [4] of 2.3, an IC50 [9] of 2540 nM and an IC50 [10] of 3690 nM. For the same compound, the IC50 [11] was 5300 nM, the Activity [12] was “Dose-Dependent Effect” and the viability at 1 µM [5] was 50%. The Activity [6] was “Non-Toxic”, the Activity [13] was “Active” and the Activity [14] was “Active”. For the same compound, the pKa [15] was 5.26, the solubility at 24 h [7] was 0.0329 mM (≈ 9.68 µg/mL) and the logD [16] was 1.65. It also gave a logD [17] of 3.31, a logD [18] of 1.66 and a logD [19] of 1.67. It also gave a logD [20] of 1.78, a logD [21] of 2.28 and a logD [22] of 2.97. It also gave a logD [23] of 3.26, a logD [24] of 3.3 and a logD [25] of 3.31. For the same compound, the logD [26] was 3.31, the logD [27] was 3.31 and the logD [28] was 3.31. It also gave a logD [29] of 3.31 and a logD [30] of 3.31.
